{"source": "patent US20140158116A1", "about": "“INHIBITING TRPA1 FOR THE TREATMENT OF ASTHMA” (Cubist Pharmaceuticals, Inc., priority 2012, published 2014)", "key": {"[1]": {"system": "Ascaris suum antigen-induced pulmonary resistance", "assay": "Sheep allergic asthma model, pulmonary resistance (RL) after Ascaris suum antigen", "type": "in vivo", "procedure": "Compounds were tested in the sheep model of experimental asthma reported in Abraham W M, Asthma & Rhinitis, 2000: 1205-1227 incorporated herein by reference in its entirety.\nThe unsedated sheep were restrained in a cart in the prone position with their heads immobilized. After topical anesthesia of the nasal passages with 2% lidocaine solution, a balloon catheter was advanced through one nostril into the lower esophagus. The sheep were intubated with a cuffed endotracheal tube through the other nostril. Pleural pressure was estimated with the esophageal balloon catheter. Lateral pressure in the trachea was measured with a sidehole catheter (inner dimension, 2.5 mm) advanced through and positioned distal to the tip of the endotracheal tube. Transpulmonary pressure, the difference between tracheal and pleural pressure, was measured with a differential pressure transducer catheter system. For the measurement of pulmonary resistance (RL), the proximal end of the endotracheal tube was connected to a pneumotachograph. […]\nBaseline concentration response curves to aerosol Carbachol were obtained 1 to 3 days before commencement of drug/vehicle treatment. […] Baseline values of pulmonary resistance (RL) were obtained within 30 minutes of treatment and then re-measured 30 minutes before antigen challenge. […]"}, "rTRPA1": {"molecular_target": "rTRPA1 (Rattus norvegicus, UniProt Q6RI86)", "sequence (Q6RI86 whole entry)": "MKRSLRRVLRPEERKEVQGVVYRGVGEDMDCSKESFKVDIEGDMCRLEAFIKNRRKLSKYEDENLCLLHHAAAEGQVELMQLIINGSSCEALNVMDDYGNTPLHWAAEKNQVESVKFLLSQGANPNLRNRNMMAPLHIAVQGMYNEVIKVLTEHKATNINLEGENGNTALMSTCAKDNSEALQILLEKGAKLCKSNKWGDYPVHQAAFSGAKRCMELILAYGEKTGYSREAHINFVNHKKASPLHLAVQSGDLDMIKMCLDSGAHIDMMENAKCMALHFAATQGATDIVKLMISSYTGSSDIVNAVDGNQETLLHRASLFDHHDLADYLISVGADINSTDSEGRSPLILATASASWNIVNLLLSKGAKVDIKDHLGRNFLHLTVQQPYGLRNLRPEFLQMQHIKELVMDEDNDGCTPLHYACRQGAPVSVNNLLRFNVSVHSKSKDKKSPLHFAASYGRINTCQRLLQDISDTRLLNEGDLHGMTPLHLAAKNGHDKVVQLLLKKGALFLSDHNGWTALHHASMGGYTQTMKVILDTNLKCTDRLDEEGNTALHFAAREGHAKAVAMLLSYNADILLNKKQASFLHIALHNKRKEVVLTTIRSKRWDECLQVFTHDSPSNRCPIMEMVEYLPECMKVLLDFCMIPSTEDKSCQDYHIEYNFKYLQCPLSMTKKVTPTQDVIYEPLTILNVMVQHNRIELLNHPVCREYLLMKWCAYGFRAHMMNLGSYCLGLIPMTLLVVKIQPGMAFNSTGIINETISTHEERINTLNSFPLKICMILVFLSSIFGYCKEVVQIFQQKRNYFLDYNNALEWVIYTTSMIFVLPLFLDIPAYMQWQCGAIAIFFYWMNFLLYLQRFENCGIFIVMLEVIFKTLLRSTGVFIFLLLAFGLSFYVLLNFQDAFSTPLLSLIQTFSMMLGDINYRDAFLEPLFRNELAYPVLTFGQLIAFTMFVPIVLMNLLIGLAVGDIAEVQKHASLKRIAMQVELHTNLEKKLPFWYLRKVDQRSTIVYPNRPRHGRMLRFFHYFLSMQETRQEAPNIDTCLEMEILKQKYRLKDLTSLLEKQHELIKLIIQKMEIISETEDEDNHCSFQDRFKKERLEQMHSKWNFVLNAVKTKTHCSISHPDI", "assay": "Whole-cell patch clamp block of inward current through rTRPA1", "type": "cell-based", "procedure": "(§1) Data for TRPA1 inhibition and the selectivity of TRPA1 inhibition was obtained by this method for the compound of Formula (Ia) and included in Table 1 and Table 2. All currents were recorded in whole-cell configuration using EPC-9 and EPC-10 amplifiers and Patchmaster software (HEKA). […] The standard pipette solution consisted of 140 mM CsAsp, 10 mM EGTA, 10 mM HEPES, 2.27 mM MgCl2, 1.91 mM CaCl2, 4 mM MgATP, and 0.1-0.3 mM Na2GTP, with pH adjusted to 7.2 with CsOH. In addition, a solution containing 145 mM CsCl, 10 mM HEPES, 10 mM EGTA and 1 mM MgCl2 (pH 7.2 adjusted with CsOH) can be used. The standard bath solution contained 150 mM NaCl, 10 mM HEPES, 10 mM glucose, 4.5 mM KCl, 1 mM EGTA, 3 mM MgCl2, with pH adjusted to 7.4 with NaOH. In some instances, 2 mM CaCl2 was added in place of EGTA and the concentration of MgCl2 was reduced to 1 mM.\nData were collected either by continuous recordings at −60 mV or by applying voltage ramps from a holding potential of 0 mV every 4 s. Continuous recordings were collected at 400 Hz and digitally filtered off-line at 10 Hz for presentation. Voltage ramps were applied from −100 mV to 100 mV over the course of 400 ms, and data were collected at 10 kHz and filtered at 2.9 kHz. Inward and outward currents were analyzed from the ramps at −80 and 80 mV, respectively. Liquid junction potential correction was not used.\nSolutions were switched using a gravity-fed continuous focal perfusion system. To achieve rapid temperature changes, two temperature control and perfusion systems were employed simultaneously. For temperatures ≧22° C., a Warner Instruments bipolar temperature controller (TC-344B) and inline heater (SHM-8) were used. […] Temperatures were confirmed using a thermistor (Warner Instruments, TA-29), with temperatures at the recorded cell estimated to be within +/−2° C. of those reported.\nIC50 of compounds was estimated by testing each compound at 5 micromolar and 500 nanomolar. […] IC50 for compounds between 500 nanomolar and 5 micromolar was similarly estimated. […]"}, "hTRPM8": {"molecular_target": "hTRPM8 (Homo sapiens, UniProt Q7Z2W7)", "sequence (Q7Z2W7 whole entry, the tested form may be a part)": "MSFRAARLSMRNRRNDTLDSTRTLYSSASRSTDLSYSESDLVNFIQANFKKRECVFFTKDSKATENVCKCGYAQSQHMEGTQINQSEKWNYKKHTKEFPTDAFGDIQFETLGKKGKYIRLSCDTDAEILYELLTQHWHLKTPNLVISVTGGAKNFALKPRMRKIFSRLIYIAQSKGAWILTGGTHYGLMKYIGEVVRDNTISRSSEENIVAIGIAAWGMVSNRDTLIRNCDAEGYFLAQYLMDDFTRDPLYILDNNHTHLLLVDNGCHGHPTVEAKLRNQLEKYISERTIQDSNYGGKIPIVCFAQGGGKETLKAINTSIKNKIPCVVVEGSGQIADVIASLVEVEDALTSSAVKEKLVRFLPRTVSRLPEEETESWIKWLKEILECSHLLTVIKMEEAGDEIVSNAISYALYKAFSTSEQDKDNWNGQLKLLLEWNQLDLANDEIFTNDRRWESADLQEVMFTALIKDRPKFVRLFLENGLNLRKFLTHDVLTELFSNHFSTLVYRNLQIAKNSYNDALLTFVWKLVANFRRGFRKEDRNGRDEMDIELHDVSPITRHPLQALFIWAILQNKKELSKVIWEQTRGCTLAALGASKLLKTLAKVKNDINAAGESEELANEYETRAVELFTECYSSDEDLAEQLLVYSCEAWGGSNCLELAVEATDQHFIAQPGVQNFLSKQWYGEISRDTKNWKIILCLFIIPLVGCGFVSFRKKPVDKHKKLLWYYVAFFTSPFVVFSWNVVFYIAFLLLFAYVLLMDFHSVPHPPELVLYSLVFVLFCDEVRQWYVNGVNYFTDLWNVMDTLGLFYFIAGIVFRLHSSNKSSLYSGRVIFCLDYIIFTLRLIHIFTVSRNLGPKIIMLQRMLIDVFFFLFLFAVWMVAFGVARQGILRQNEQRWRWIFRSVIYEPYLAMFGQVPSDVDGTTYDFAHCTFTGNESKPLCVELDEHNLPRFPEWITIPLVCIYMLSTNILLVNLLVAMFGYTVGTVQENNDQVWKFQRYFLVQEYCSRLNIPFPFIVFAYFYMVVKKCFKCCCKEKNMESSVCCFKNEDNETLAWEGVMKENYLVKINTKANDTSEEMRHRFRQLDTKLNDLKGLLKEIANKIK", "assay": "Patch clamp selectivity, hTRPM8", "type": "cell-based", "procedure": "as §1\nData were collected either by continuous recordings at −60 mV or by applying voltage ramps from a holding potential of 0 mV every 4 s. […] Inward and outward currents were analyzed from the ramps at −80 and 80 mV, respectively. […]\nSolutions were switched using a gravity-fed continuous focal perfusion system. […] Temperatures were confirmed using a thermistor (Warner Instruments, TA-29), with temperatures at the recorded cell estimated to be within +/−2° C. of those reported. […]"}}, "note": "Where two headings read alike, the source gives them in different places.", "data": [{"smiles": "C[C@H]1CCCN1c1ncc(-c2cccc(NC(=O)Cn3cnc4c3c(=O)n(C)c(=O)n4C)n2)cn1", "note": "[Formula (Ia)]", "values": [{"measurement": "inhibition of late phase pulmonary resistance response", "setting": "[1]; 5 mg/kg PO daily for 4 days", "value": "~45", "unit": "%"}, {"measurement": "inhibition of late phase pulmonary resistance response", "setting": "[1]; 10 mg/kg PO daily for 4 days", "value": "approximately 75%"}, {"measurement": "IC50", "setting": "rTRPA1; class symbol, read-out: Potency (IC50) Rat", "value": "≥ 100", "unit": "nM"}, {"measurement": "IC50", "setting": "rTRPA1; rTRPA1, Rat, current activation 10 micromolar AITC, read-out: IC50 Inward current", "value": "101 ± 8", "unit": "nM"}, {"measurement": "Fold Selectivity Compared to TRPA1", "setting": "hTRPM8", "value": "~200", "unit": "fold"}, {"measurement": "IC50", "setting": "hTRPM8; 100 micromolar Menthol, Inward (−80 mV)", "value": 19000, "unit": "nM"}]}]}
